Data from US8283366B2, “Derivatives of pyridoxine for inhibiting HIV integrase” (Ambrilia Biopharma, Inc., priority 2010, dated 2012).
Read-outs that look alike come from different tables or passages of the source.

Columns and labels:
[1] = system: wild type NL-4.3; experiment: Multi-cycle infection assay in MT-4 cells, MTT cytoprotection readout; format: cell-based, HIV-1; conditions: read-out: EC50 (nM) multi-cycle
Description: The antiviral efficacies of the integrase inhibitor compounds of the invention were evaluated based on EC50 measures obtained from two different in vitro HIV infection assay using cultured MT-4 cells: (1) a multi-cycle infection where cells were infected with wild type NL-4.3) and (2) a single-cycle infection where the cells were infected with a luciferase-bearing, envelope defective (env-) NL-4.3 virus pseudotyped with HIV-1 env (HXBc2.
The incubation period for the multi-cycle infection assay was 6 days. Cell viability (cytoprotection) and EC50 were determined using the colorimetric MTT assay (A. J. Japour et al, Antimicrobial Agents and Chemotherapy, 37, 1095-1101, 1993 and R. Pauwels et al. Journal of Virological Methods, 20, 309-321, 1988).

[2] = system: NL4.3 virus; experiment: Multi-cycle antiviral activity without and with human serum, p24 ELISA; conditions: for Fold-change with HS: EC50 with 40% HS versus 10% FBS alone; for EC50: Human immunodeficiency virus 1, 144 h
Description: The multi-cycle antiviral activity in the absence and presence of human serum was determined by p24 ELISA measurement after 6 days of NL4.3 virus infection.

[3] = biological target: T1, recombinant HIV-1 integrase (Human immunodeficiency virus type 1 group M subtype B, UniProt P04585); experiment: Integrase strand transfer assay; format: biochemical; conditions: compounds added after assembly, 10% DMSO, read-out: ST IC50
T1 construct: recombinant HIV-1 integrase
Description: IC50 was determined for the compounds of the inventions based on data generated in strand transfer assays. The IC50 is a measure of the ability of the compounds tested to inhibit the integration of 3′-processed oligonucleotides by recombinant HIV-1 integrase.
Strand transfer assays were performed essentially as described in Hazuda, D. J.; Felock, P.; Hastings, J. C.; Pramanik, B.; Wolfe, A. J. Virol. 1997, 71, 7005-7011). Donor DNA (1.5 pmol/well), biotinylated on the 5′ end of the strand processed by integrase, was immobilized onto streptavidin-coated microtiter plates. Recombinant integrase (250 ng/well) was assembled onto the immobilized donor oligonucleotide in reaction buffer (20 mM Hepes, pH 7.6, 5 mM B-mercaptoethanol, 50 ug/mL bovine serum albumin) containing 30 mM MnCl2. Excess enzyme was removed, and the complexes were washed extensively prior to the addition of the target DNA substrate. The target DNA (0.75 pmoles/well) substrate was labeled on each 3′ end with FITC. After strand transfer, the FITC-labeled products were detected using an anti-FITC antibody conjugated with alkaline phosphatase (Roche) and a chemi-luminescent substrate (Tropix CSPD with Sapphire II enhancer, Applied Biosystems). The assay was performed in a final concentration of 10% DMSO. To specifically evaluate inhibition of strand transfer, compounds were added after assembly, just prior to the addition of the target DNA.
The results of the integrase strand transfer assay are reported as IC50 values. IC50 values were determined using a sigmoidal dose-response equation. The formula used for calculating % inhibition was: % Inhibition=[1−(sample counts/average of positive control)]*100.

[4] = Human immunodeficiency virus 1, MT4, 144 h, MT-4 cells, 6 days incubation, MTT
[5] = read-out: EC50 (uM) 10% FBS + 40% HS

Compound | EC50 [1, 4] [nM] | IC50 [3] [nM] | further results
Cc1c(Cc2ccc(F)cc2)cnc(C(=O)NO)c1O [Example 7, 5-(4-fluorobenzyl)-N,3-dihydroxy-4-methylpicolinamide] | 21 |  | 
O=C(NO)c1ncc(C(O)c2ccc(F)cc2)c(CO)c1O (stereo not drawn) [Example 3, 5-((4-fluorophenyl)(hydroxy)methyl)-N,3-dihydroxy-4-(hydroxymethyl)picolinamide] | 2 |  | 
Cc1c(C(O)c2ccc(F)cc2)cnc(C(=O)NO)c1O (stereo not drawn) [Example 8, 5-((4-fluorophenyl)(hydroxy)methyl)-N,3-dihydroxy-4-methylpicolinamide] | 8 |  | 
Cc1c(C(=O)c2ccc(F)cc2)cnc(C(=O)NO)c1O [Example 9, 5-(4-fluorobenzoyl)-N,3-dihydroxy-4-methylpicolinamide] | 6680 |  | 
O=C(NO)c1ncc([C@H](O)c2ccc(F)c(Cl)c2)c(CO)c1O [Example 1, (R)-5-((3-Chloro-4-fluorophenyl)(hydroxy)methyl)-N,3-dihydroxy-4-(hydroxymethyl)picolinamide] | 4 | 56 | Fold-change with HS [2]: 1; EC50 ([2]; read-out: EC50 (uM) 10% FBS): 0.006 µM; EC50 [2, 5]: 0.006 µM
Cc1c(/C(=N/O)c2ccc(F)cc2)cnc(C(=O)NO)c1O [Example 10, (E)-5-((4-fluorophenyl)(hydroxyimino)methyl)-N,3-dihydroxy-4-methylpicolinamide] | 49 |  | 
O=C(NO)c1ncc(Cc2ccc(F)cc2)c(CO)c1O [Example 2, 5-(4-fluorobenzyl)-N,3-dihydroxy-4-(hydroxymethyl)picolinamide] | 10 | 35 | 
Cc1nnc(C(=O)NC(C)(C)c2nc(C(=O)NCc3ccc(F)cc3)c(O)c(=O)n2C)o1 [Raltegravir, reference compound] |  |  | EC50 ([2]; read-out: EC50 (uM) 10% FBS): 0.047 µM; EC50 [2, 5]: 0.064 µM; EC50 ([1]; Human immunodeficiency virus 1, MT4, 144 h): 20 nM
O=C(O)C(O)=CC(=O)c1cc(OCc2ccccc2)cc(OCc2ccccc2)c1 [Example L-708906, reference compound] |  | 45 | EC50 ([1]; MT-4 cells, 6 days incubation, MTT): 5800 nM
CONC(=O)c1ncc(C(O)c2ccc(F)cc2)c(CO)c1O (stereo not drawn) [Example 6, 5-((4-fluorophenyl)(hydroxy)methyl)-3-hydroxy-4-(hydroxymethyl)-N-methoxypicolinamide] | 74 |  | 
O=C(NO)c1ncc([C@@H](O)c2ccc(F)c(Cl)c2)c(CO)c1O [Example 11, (S)-5-((3-Chloro-4-fluorophenyl)(hydroxy)methyl)-N,3-dihydroxy-4-(hydroxymethyl)picolinamide] | 2 | 23 | Fold-change with HS [2]: 1; EC50 ([2]; read-out: EC50 (uM) 10% FBS): 0.001 µM; EC50 [2, 5]: 0.001 µM
CN(O)C(=O)c1ncc(C(O)c2ccc(F)cc2)c(CO)c1O (stereo not drawn) [Example 5, 5-((4-fluorophenyl)(hydroxy)methyl)-N,3-dihydroxy-4-(hydroxymethyl)-N-methylpicolinamide] | 421 |  | 
